Source: US12435010B1, “4-iodopyrazole coordination compound and preparation method and use thereof” (Institute of Applied Ecology, Chinese Academy of Sciences, priority 2024, dated 2025)

Experiments:
urease = urease (Canavalia ensiformis, UniProt P07374); settings: read-out: IC50 of urease inhibition; urease 10 KU/L, preincubated 1 h at 37° C., phosphate buffer pH 6.8 with 500 mM urea; modified Karber method
Experimental: An endpoint of the testing was determined by the phenol red indicator, and the testing was stopped when the solution changed from pale yellow to red.

nitrobacteria = assay: nitrification inhibition activity in air-dry soil with urea; settings: for Nitrification inhibition rate dN / Mass fraction of nitrate nitrogen in the sample solution ω1: 10.00 g air-dry soil, 0.10 g urea, 48 h; for Mass fraction of nitrate nitrogen in the sample solution ω1: control ω2=948.6
Experimental: 2. A method for determining nitrification inhibition activity is as follows. […] 4-iodopyrazole coordination compound prepared in Embodiment 1 were respectively weighed, and placed into 500 ml conical flasks respectively; 10.00 g of air-dry soil, 0.10 g of urea and 100 mL of phosphate buffer were added to each flask; the conical flasks were simultaneously place into a thermostatic culture oscillator (180 rpm) for oscillation for 48 h, and then the resulting solutions were filtered to determine mass fraction ω1 of nitrate nitrogen (including nitrite nitrogen) in the sample and the control sample solution respectively. Calculation of nitrification inhibition rate: the nitrification inhibition rate of binuclear ligands with different addition amounts was calculated, and the results are shown in Table 2. [formula] • where dN is nitrification inhibition rate (%); • ω1 is mass fraction of nitrate nitrogen (including nitrite nitrogen) in the sample; and • ω2 is mass fraction of nitrate nitrogen (including nitrite nitrogen) in the control sample, and ω2=948.6.

Chain of urease (P07374 whole entry, looked up): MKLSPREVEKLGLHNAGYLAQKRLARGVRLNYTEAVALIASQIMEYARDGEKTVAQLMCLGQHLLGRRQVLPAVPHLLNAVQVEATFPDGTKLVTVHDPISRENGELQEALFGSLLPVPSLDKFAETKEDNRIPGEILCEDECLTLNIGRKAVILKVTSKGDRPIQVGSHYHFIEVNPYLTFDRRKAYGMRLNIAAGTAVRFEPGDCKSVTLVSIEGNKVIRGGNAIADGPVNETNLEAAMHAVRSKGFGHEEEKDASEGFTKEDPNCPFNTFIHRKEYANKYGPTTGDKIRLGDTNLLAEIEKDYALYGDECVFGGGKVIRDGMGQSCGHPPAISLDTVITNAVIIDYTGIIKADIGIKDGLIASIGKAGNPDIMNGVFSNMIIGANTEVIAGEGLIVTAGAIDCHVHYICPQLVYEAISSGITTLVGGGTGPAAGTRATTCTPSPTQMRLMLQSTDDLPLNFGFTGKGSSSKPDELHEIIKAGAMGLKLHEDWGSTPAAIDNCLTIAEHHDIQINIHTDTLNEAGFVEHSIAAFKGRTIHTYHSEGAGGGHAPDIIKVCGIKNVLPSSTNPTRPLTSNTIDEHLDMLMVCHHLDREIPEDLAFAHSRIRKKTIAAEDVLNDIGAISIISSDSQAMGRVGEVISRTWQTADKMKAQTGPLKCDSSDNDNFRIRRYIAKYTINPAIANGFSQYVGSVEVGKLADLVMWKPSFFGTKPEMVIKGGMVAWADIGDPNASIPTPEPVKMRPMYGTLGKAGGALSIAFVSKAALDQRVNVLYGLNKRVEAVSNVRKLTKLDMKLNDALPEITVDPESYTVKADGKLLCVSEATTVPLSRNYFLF

SMILES: Ic1cn[nH]c1.Ic1cn[nH]c1.[Cl][Cu][Cl] [copper chloride-linked 4-iodopyrazole coordination compound]
- IC50 (urease): 2580 ± 40 nM
- nitrification inhibition rates (nitrobacteria; all addition amounts of Table 2): greater than 9%
- Nitrification inhibition rate dN (nitrobacteria; mass of compound 0.03 g): 9.16%
- Mass fraction of nitrate nitrogen in the sample solution ω1 (nitrobacteria; mass of compound 0.03 g): 861.7
- Nitrification inhibition rate dN (nitrobacteria; mass of compound 0.05 g): 9.79%
- Mass fraction of nitrate nitrogen in the sample solution ω1 (nitrobacteria; mass of compound 0.05 g): 855.8
- Nitrification inhibition rate dN (nitrobacteria; mass of compound 0.07 g): 11.09%
- Mass fraction of nitrate nitrogen in the sample solution ω1 (nitrobacteria; mass of compound 0.07 g): 843.4
- Nitrification inhibition rate dN (nitrobacteria; mass of compound 0.10 g): 15.57%
- Mass fraction of nitrate nitrogen in the sample solution ω1 (nitrobacteria; mass of compound 0.10 g): 800.9
